According to patent publication US11084796B2, “Heterocyclic derivatives for the treatment of RSV” (GEORGIA STATE UNIVERSITY RESEARCH FOUNDATION, INC., priority 2016, dated 2021):

Tested on: RSV
Assay: Potency range (EC50 values) of C series compounds against RSV
Type: cell-based
Conditions: human respiratory syncytial virus
Procedure: Two-fold serial dilutions of hit candidates were prepared in 384-well plates in three replicates each using the Nimbus liquid handler. BEAS-2B cells (8×10^3/well) were then plated as before, serial dilutions transferred using the pin-tool, and cells infected with recombinant virus strains expressing distinct luciferase reporter proteins or left uninfected for cell viability assessment. Reporter signals were recorded as outlined above. To determine cell viability, PrestoBlue substrate (life technologies) was added after 40-hour incubation of cells at 37° C. (5 μl/well) and top-read fluorescence (excitation 560 nm; emission 590 nm; instrument gain 85) recorded after 45 minutes of incubation at 37° C. using the H1 synergy plate reader. Four-parameter variable slope regression modeling was applied to determine 50% active (EC50) and toxic (CC50) concentrations.

SMILES	EC50
O=C(CN1C(=O)C(C(=O)N2CCNCC2)Sc2ccccc21)NC1CCCCC1 (centres unmarked) [AVG-055]	> 20 µM
CN(C)C(=O)C1Sc2ccccc2N(CC(=O)NC2CCCCC2)C1=O (centres unmarked) [AVG-057]	1 to 10 µM
CC1(C)CCC(NC(=O)CN2C(=O)C(C(=O)N3CCCCC3)Sc3ccccc32)CC1 (centres unmarked) [AVG-050]	1 to 10 µM
CC(C)c1ccc2c(c1)SC(C(=O)N1CCCCC1)C(=O)N2CC(=O)NC1CCCCC1 (centres unmarked) [AVG-153]	1 to 10 µM
O=C(CN1C(=O)C(C(=O)N2CCOCC2)Sc2ccccc21)NC1CCCCC1 (centres unmarked) [AVG-054, N-cyclohexyl-2-(2-(morpholine-4-carbonyl)-3-oxo-2H-benzo[b][1,4]thiazin-4(3H)-yl) acetamide]	1 to 10 µM
Cc1ccccc1NC(=O)CN1C(=O)C(C(=O)N2CCCCC2)Sc2cc(Cl)ccc21 (centres unmarked) [AVG-219]	0.1 to 1 µM
O=C(CN1C(=O)C(C(=O)N2CCCCC2)Sc2ccccc21)Nc1cccnc1 (centres unmarked) [AVG-223]	10 to 20 µM
O=C(CN1C(=O)C(C(=O)NC2CCCCC2)Sc2cc(Cl)ccc21)NC1CCCCC1 (centres unmarked) [AVG-218]	1 to 10 µM
COc1cccc2c1SC(C(=O)N1CCCCC1)C(=O)N2CC(=O)NC1CCCCC1 (centres unmarked) [AVG-145]	1 to 10 µM
CC(C)NC(=O)CN1C(=O)C(C(=O)N2CCCCC2)Sc2ccccc21 (centres unmarked) [AVG-048]	> 20 µM
O=C(CN1C(=O)C(C(=O)NCc2ccccc2)Sc2ccccc21)NC1CCCCC1 (centres unmarked) [AVG-142]	10 to 20 µM
O=C(CN1C(=O)C(C(=O)N2CCCCC2)Sc2ccccc21)NCC1CCCCC1 (centres unmarked) [AVG-216]	1 to 10 µM
CC(C)(C)NC(=O)CN1C(=O)C(C(=O)N2CCCCC2)Sc2ccccc21 (centres unmarked) [AVG-140]	1 to 10 µM
O=C(CN1C(=O)C(C(=O)N2CCCCC2)Sc2cc(-c3ccccc3)ccc21)NC1CCCCC1 (centres unmarked) [AVG-154]	> 20 µM
CN1CCC(NC(=O)CN2C(=O)C(C(=O)N3CCCCC3)Sc3ccccc32)CC1 (centres unmarked) [AVG-047]	> 20 µM
O=C(C1Sc2ccccc2N(Cc2nc3ccccc3[nH]2)C1=O)N1CCCCC1 (centres unmarked) [AVG-112]	10 to 20 µM
O=C(CN1C(=O)C(C(=O)N2CCCCC2)Sc2ccccc21)NC1CCCC1 (centres unmarked) [AVG-051]	1 to 10 µM
CN1CCC(NC(=O)C2Sc3ccccc3N(CC(=O)NC3CCCCC3)C2=O)CC1 (centres unmarked) [AVG-085]	> 20 µM
COc1cccc2c1N(CC(=O)NC1CCCCC1)C(=O)C(C(=O)N1CCCCC1)S2 (centres unmarked) [AVG-148]	10 to 20 µM
O=C(C1Sc2ccccc2N(Cc2nc3ccccc3o2)C1=O)N1CCCCC1 (centres unmarked) [AVG-111]	> 20 µM

SMILES	EC50
O=C(CN1C(=O)C(C(=O)N2CCCCC2)Sc2cc(F)ccc21)NC1CCCCC1 (centres unmarked) [AVG-150]	1 to 10 µM
O=C(CN1C(=O)C(C(=O)N2CCCCC2)Sc2ccccc21)NC1CCNCC1 (centres unmarked) [AVG-046]	> 20 µM
C=C(C)c1ccc2c(c1)SC(C(=O)N1CCCCC1)C(=O)N2CC(=O)NC1CCCCC1 (centres unmarked) [AVG-215]	1 to 10 µM
COc1ccc2c(c1)N(CC(=O)NC1CCCCC1)C(=O)C(C(=O)N1CCCCC1)S2 (centres unmarked) [AVG-147]	10 to 20 µM
CC(C)(NC(=O)CN1C(=O)C(C(=O)N2CCCCC2)Sc2ccccc21)c1ccccc1 (centres unmarked) [AVG-139]	1 to 10 µM
O=C(CN1C(=O)C(C(=O)N2CCCCC2)Sc2ccccc21)N1CCCCC1 (centres unmarked) [AVG-060]	> 20 µM
O=C(CN1C(=O)C(C(=O)N2CCCCC2)Sc2ccc(Cl)cc21)NC1CCCCC1 (centres unmarked) [AVG-063]	1 to 10 µM
COc1ccc2c(c1)SC(C(=O)N1CCCCC1)C(=O)N2CC(=O)NC1CCCCC1 (centres unmarked) [AVG-146]	1 to 10 µM
O=C(CN1C(=O)C(C(=O)NC2CCCCC2)Sc2ccccc21)NC1CCCCC1 (centres unmarked) [AVG-058]	1 to 10 µM
COc1ccccc1NC(=O)CN1C(=O)C(C(=O)N2CCCCC2)Sc2ccccc21 (centres unmarked) [AVG-221]	1 to 10 µM
O=C(CN1C(=O)C(C(=O)N2CCCCC2)Sc2c(Cl)cccc21)NC1CCCCC1 (centres unmarked) [AVG-061]	1 to 10 µM
Cc1ccccc1NC(=O)CN1C(=O)C(C(=O)N2CCCCC2)Sc2ccccc21 (centres unmarked) [AVG-052]	1 to 10 µM
O=C(CN1C(=O)C(C(=O)N2CCCCC2)Sc2cc(Cl)ccc21)NCC1CCCCC1 (centres unmarked) [AVG-217]	1 to 10 µM
O=C(CN1C(=O)C(C(=O)NC2CCOCC2)Sc2ccccc21)NC1CCCCC1 (centres unmarked) [AVG-083]	> 20 µM
CC(C)(C)NC(=O)C1Sc2ccccc2N(CC(=O)NC2CCCCC2)C1=O (centres unmarked) [AVG-141]	1 to 10 µM
NC(=O)CN1C(=O)C(C(=O)N2CCCCC2)Sc2ccccc21 (centres unmarked) [AVG-113]	> 20 µM
O=C(CN1C(=O)C(C(=O)N2CCCCC2)Sc2cc(Br)ccc21)NC1CCCCC1 (centres unmarked) [AVG-149]	1 to 10 µM
CC(NC(=O)C1Sc2ccccc2N(CC(=O)NC2CCCCC2)C1=O)c1ccccc1 (centres unmarked) [AVG-143]	> 20 µM
O=C(CN1C(=O)C(C(=O)N2CCCCC2)Sc2cc(C(F)(F)F)ccc21)NC1CCCCC1 (centres unmarked) [AVG-156]	1 to 10 µM
CC1CCC(NC(=O)CN2C(=O)C(C(=O)N3CCCCC3)Sc3ccccc32)CC1 (centres unmarked) [AVG-049]	1 to 10 µM

SMILES	EC50
CC(NC(=O)CN1C(=O)C(C(=O)N2CCCCC2)Sc2ccccc21)c1ccccc1 (centres unmarked) [AVG-138]	1 to 10 µM
O=C(CN1C(=O)C(C(=O)N2CCCCC2)Sc2ccccc21)Nc1ccncc1 (centres unmarked) [AVG-224]	10 to 20 µM
O=C(CN1C(=O)C(C(=O)N2CCCCC2)Sc2cc(Cl)ccc21)NC1CCCCC1 (centres unmarked) [AVG-062]	0.1 to 1 µM
O=C(CN1C(=O)C(C(=O)N2CCCCC2)Sc2ccccc21)NC1CC1 (centres unmarked) [AVG-114]	> 20 µM
O=C(CN1C(=O)C(C(=O)N2CCCCC2)Sc2ccccc21)NC1CCOCC1 (centres unmarked) [AVG-045]	> 20 µM
CCCCNC(=O)C1Sc2ccccc2N(CC(=O)NC2CCCCC2)C1=O (centres unmarked) [AVG-086]	10 to 20 µM
CC(C)NC(=O)C1Sc2ccccc2N(CC(=O)NC2CCCCC2)C1=O (centres unmarked) [AVG-087]	10 to 20 µM
Cc1cccc(NC(=O)CN2C(=O)C(C(=O)N3CCCCC3)Sc3ccccc32)c1 (centres unmarked) [AVG-053]	> 20 µM
CN(C(=O)CN1C(=O)C(C(=O)N2CCCCC2)Sc2ccccc21)C1CCCCC1 (centres unmarked) [AVG-059]	> 20 µM
O=C(CN1C(=O)C(C(=O)N2CCCCC2)Sc2cccc(Cl)c21)NC1CCCCC1 (centres unmarked) [AVG-064]	10 to 20 µM
CCc1ccc2c(c1)SC(C(=O)N1CCCCC1)C(=O)N2CC(=O)NC1CCCCC1 (centres unmarked) [AVG-152]	1 to 10 µM
O=C(CN1C(=O)C(C(=O)N2CCCCC2)Sc2cnccc21)NC1CCCCC1 (centres unmarked) [AVG-155]	1 to 10 µM
O=C(CN1C(=O)C(C(=O)N2CCCCC2)Sc2ccccc21)NC1CCCCC1 (centres unmarked) [AVG-044, N-cyclohexyl-2-(3-oxo-2-(piperidine-1-carbonyl)-2H-benzo[b][1,4]thiazin-4(3H)-yl) acetamide]	1 to 10 µM
CC(C)(NC(=O)C1Sc2ccccc2N(CC(=O)NC2CCCCC2)C1=O)c1ccccc1 (centres unmarked) [AVG-144]	1 to 10 µM
Cc1ccc2c(c1)SC(C(=O)N1CCCCC1)C(=O)N2CC(=O)NC1CCCCC1 (centres unmarked) [AVG-151]	10 to 20 µM
O=C(CN1C(=O)C(C(=O)N2CCCCC2)Sc2ccccc21)NCc1ccccc1 (centres unmarked) [AVG-137]	1 to 10 µM
CN1CCN(C(=O)C2Sc3ccccc3N(CC(=O)NC3CCCCC3)C2=O)CC1 (centres unmarked) [AVG-056]	10 to 20 µM
O=C(CN1C(=O)C(C(=O)NC2CCNCC2)Sc2ccccc21)NC1CCCCC1 (centres unmarked) [AVG-084]	> 20 µM
O=C(CN1C(=O)C(C(=O)N2CCCCC2)Sc2ccccc21)Nc1ccccc1Cl (centres unmarked) [AVG-220]	1 to 10 µM
